Reference: article PMC11747885, “Potent inhibitors of the human RNA ligase Rlig1 highlights its role in RNA integrity maintenance under oxidative cellular stress” (Chemical Science, 2025)
Values joined by “and” are separate entries in the source; they are usually repeats but may differ in a detail not shown here. Equal entries are not always repeated. Where two headings read alike, the source gives them in different places.

Legend:
Rlig1-AMP = molecular target: T1, Rlig1-AMP (Homo sapiens, UniProt Q8N999); experiment: FRET-based high-throughput screening of inhibitors for Rlig1-AMP; type: biochemical; conditions: for Raw data [w Enyzm]: with enzyme; for Raw data [w/o Enzym]: without enzyme
T1 construct: made in house; host or cells: E. coli BL21 (DE3), pET15b-Rlig1

[1] = ref MedChemExpress, cited from earlier work; for solubility, DMSO: in DMSO
[2] = DMSO; ref MedChemExpress; cited from earlier work
[3] = ultrasonic/warming, ref MedChemExpress, cited from earlier work
[4] = DMSO; ref MedChemExpress; cited from earlier work; remark: listed apart in the source
[5] = sheet HTS hits, difference of raw data w/o and w enzyme
[6] = HTS hits, difference of raw data w/o and w enzyme
[7] = HTS hits, normalised value of 1-D Distance

T1 sequence (Q8N999 whole entry): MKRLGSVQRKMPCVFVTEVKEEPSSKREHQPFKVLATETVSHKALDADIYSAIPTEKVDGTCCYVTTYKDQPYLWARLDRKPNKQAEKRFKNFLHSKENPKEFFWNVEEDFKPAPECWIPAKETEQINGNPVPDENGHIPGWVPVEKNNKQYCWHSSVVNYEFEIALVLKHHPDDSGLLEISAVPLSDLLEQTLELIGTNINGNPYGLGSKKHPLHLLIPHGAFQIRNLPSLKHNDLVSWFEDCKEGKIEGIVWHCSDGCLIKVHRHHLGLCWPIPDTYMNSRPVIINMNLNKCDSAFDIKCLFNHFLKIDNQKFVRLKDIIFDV

Compound | 1-D Distance (Rlig1-AMP; [5]) | Raw data [w Enyzm] (Rlig1-AMP; sheet HTS hits) | Raw data [w/o Enzym] (Rlig1-AMP; sheet HTS hits) | solubility, DMSO [1] | Raw data [w Enyzm] (Rlig1-AMP; HTS hits) | Raw data [w/o Enzym] (Rlig1-AMP; HTS hits) | 1-D Distance (Rlig1-AMP; [6]) | solubility, DMSO [3] | also measured
CO[C@H]1/C=C/O[C@@]2(C)Oc3c(C)c(O)c4c(O)c(c(/C=N/N5CCN(C6CCCC6)CC5)c(O)c4c3C2=O)NC(=O)/C(C)=C\C=C\[C@H](C)[C@H](O)[C@@H](C)[C@@H](O)[C@@H](C)[C@H](OC(C)=O)[C@@H]1C [Rifapentine] | 1003 | 7400 | 6397 | ≥ 50 mg/mL |  |  |  |  | solubility, H2O ([1]; in H2O): < 0.1 mg/mL
O=C1c2ccccc2-c2nc3nonc3nc21 [SMER3] | 157 | 13928 | 13771 | DMSO : 12.5 mg/mL (55.76 mM; Need ultrasonic) |  |  |  |  | 1-D Distance.npi (Rlig1-AMP; sheet HTS hits, MedChemExpress library): 102.522
O=C(O)c1cc(O)c2c(c1)[C@H]([C@H]1c3cc(C(=O)O)cc(O)c3C(=O)c3c(O[C@@H]4O[C@H](CO)[C@@H](O)[C@H](O)[C@H]4O)cccc31)c1cccc(O[C@@H]3O[C@H](CO)[C@@H](O)[C@H](O)[C@H]3O)c1C2=O [Sennoside A] |  |  |  |  | 4442 | 6178 |  |  | 1-D Distance (Rlig1-AMP; HTS hits, difference of raw data without and with enzyme): 1736; solubility [2]: 250 mg/mL and 289.77 mM
O=C(O)c1cc(O)c2c(c1)[C@@H]([C@H]1c3cc(C(=O)O)cc(O)c3C(=O)c3c(O[C@@H]4O[C@H](CO)[C@@H](O)[C@H](O)[C@H]4O)cccc31)c1cccc(O[C@@H]3O[C@H](CO)[C@@H](O)[C@H](O)[C@H]3O)c1C2=O [Sennoside B] |  |  |  |  | 3598 | 4706 | 1108 | 125 mg/mL and 144.89 mM | 
C[n+]1ccc(-c2c3nc(c(-c4cc[n+](C)cc4)c4ccc([nH]4)c(-c4cc[n+](C)cc4)c4nc(c(-c5cc[n+](C)cc5)c5ccc2[nH]5)C=C4)C=C3)cc1.Cc1ccc(S(=O)(=O)[O-])cc1.Cc1ccc(S(=O)(=O)[O-])cc1.Cc1ccc(S(=O)(=O)[O-])cc1.Cc1ccc(S(=O)(=O)[O-])cc1 [TMPyP4 tosylate] |  |  |  |  | 658 | 698 | 40 | 10 mg/mL and 7.33 mM | 1-D Distance.npi (Rlig1-AMP; [7]): 106.113; solubility, H2O [3]: 25 mg/mL and 18.33 mM
CC1(C)CCC(C)(C)c2cc(NC(=O)c3ccc(C(=O)O)cc3)ccc21 [Tamibarotene] |  |  |  |  | 8958 | 10662 | 1704 | 25.5 mg/mL and 72.56 mM | 
CCOc1ccccc1OCCN[C@H](C)Cc1ccc(OC)c(S(N)(=O)=O)c1 [Tamsulosin] | 1837 | 8934 | 10771 | DMSO : 100 mg/mL (244.79 mM; Need ultrasonic) |  |  |  |  | 
Cn1nc(-c2ccc(C(F)(F)F)cc2)nc2c(=O)n(C)c(=O)nc1-2 [Walrycin B] |  |  |  |  | 16245 | 17113 | 868 |  | 1-D Distance.npi (Rlig1-AMP; HTS hits, normalized value (npi)): 89.8871; solubility [4]: 11.5 mg/mL and 34.10 mM
Heparin (Lithium salt) |  |  |  |  | 12003 | 13115 | 1112 |  | 1-D Distance.npi (Rlig1-AMP; [7]): 83.0264; solubility, H2O [3]: H2O : 100 mg/mL (Need ultrasonic)
